Test: Residual rate of functional component during storage at 35° C. for 16 weeks (Example 1)
Format: physicochemical
Conditions: stored at 35° C.
Experimental: The residual rates of the functional components were compared while the cosmetic functional multi-capsule in Preparation Example 3 was stored at 35° C.

Compound	Ascorbic Acid Residual Rate (storage period 2 weeks)	Ascorbic Acid Residual Rate (storage period 4 weeks)	Ascorbic Acid Residual Rate (storage period 6 weeks)	Ascorbic Acid Residual Rate (storage period 8 weeks)	Ascorbic Acid Residual Rate (storage period 10 weeks)	Ascorbic Acid Residual Rate (storage period 12 weeks)	Ascorbic Acid Residual Rate (storage period 14 weeks)	Ascorbic Acid Residual Rate (storage period 16 weeks)	Functional Component Residual Rate (storage period 2 weeks)	Functional Component Residual Rate (storage period 4 weeks)	Functional Component Residual Rate (storage period 6 weeks)	Functional Component Residual Rate (storage period 8 weeks)	Functional Component Residual Rate (storage period 10 weeks)	Functional Component Residual Rate (storage period 12 weeks)	Functional Component Residual Rate (storage period 14 weeks)	Functional Component Residual Rate (storage period 16 weeks)
O=C1O[C@H]([C@@H](O)CO)C(O)=C1O [compound 1, ascorbic acid]	97.2%	95.3%	92.9%	90%	88.4%	81.2%	76.3%	70.5%	–	–	–	–	–	–	–	–
anthocyanin [compound 2]	–	–	–	–	–	–	–	–	97.2%	94.5%	91.8%	88.8%	86.5%	78.5%	74.5%	69.5%
